Results reported in ChEMBL document CHEMBL5696444 (Nat Commun, 2017).
Activity calls are given as the source filed them. No cut-off for these calls is given here.

Assays:
HCT-116 [1] = test: Induction of apoptosis in human HCT-116 cells assessed as necrosis cells at 5 uM incubated for > 6 hrs by annexin V/PI staining based analysis (Rvb=0.55%); assay type: functional
HCT-116 [2] = test: Induction of apoptosis in human HCT-116 cells assessed as necrosis cells at 10 uM incubated for > 6 hrs by annexin V/PI staining based analysis (Rvb=0.55%); assay type: functional
[3] = biological target: SRSF protein kinase 2 (Homo sapiens) (UniProt P78362); test: Inhibition of SRPK2 (unknown origin) at 123 nM in the presence of ATP by Kinome scan method relative to control; conditions: time > 6.0 hrs
Chain of SRSF protein kinase 2 (Homo sapiens) (P78362 whole entry, looked up): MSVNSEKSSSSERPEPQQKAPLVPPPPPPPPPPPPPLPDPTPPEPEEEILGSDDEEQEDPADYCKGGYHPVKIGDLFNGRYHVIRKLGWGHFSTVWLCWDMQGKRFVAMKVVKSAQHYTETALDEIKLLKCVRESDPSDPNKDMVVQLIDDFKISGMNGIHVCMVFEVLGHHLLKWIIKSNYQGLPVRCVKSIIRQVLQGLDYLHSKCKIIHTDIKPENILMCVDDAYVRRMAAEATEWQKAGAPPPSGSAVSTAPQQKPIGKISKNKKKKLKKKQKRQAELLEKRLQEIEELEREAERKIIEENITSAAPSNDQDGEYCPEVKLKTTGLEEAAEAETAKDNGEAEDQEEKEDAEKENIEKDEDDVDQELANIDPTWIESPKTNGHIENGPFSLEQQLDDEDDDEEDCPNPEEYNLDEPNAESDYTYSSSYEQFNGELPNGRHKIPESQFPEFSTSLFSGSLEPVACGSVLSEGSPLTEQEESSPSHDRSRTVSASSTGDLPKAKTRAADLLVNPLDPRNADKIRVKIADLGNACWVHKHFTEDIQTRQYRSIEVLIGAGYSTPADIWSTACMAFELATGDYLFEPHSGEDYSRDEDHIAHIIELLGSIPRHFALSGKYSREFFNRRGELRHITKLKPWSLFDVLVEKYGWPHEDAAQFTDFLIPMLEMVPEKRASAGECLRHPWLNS

[4] = biological target: Tyrosine-protein kinase ABL1 (Homo sapiens) (UniProt P00519); test: Inhibition of ABL1 (unknown origin) at 1000 nM in the presence of ATP by Kinome scan method relative to control; conditions: time > 6.0 hrs
[5] = biological target: Serine/threonine-protein kinase B-raf (Homo sapiens) (UniProt P15056); test: Inhibition of BRAF (unknown origin) at 1000 nM in the presence of ATP by Kinome scan method relative to control
[6] = biological target: Casein kinase I isoform delta (Homo sapiens) (UniProt P48730); test: Inhibition of CSNK1D (unknown origin) at 1000 nM in the presence of ATP by Kinome scan method relative to control
Chain of Casein kinase I isoform delta (Homo sapiens) (P48730 whole entry, looked up, canonical isoform): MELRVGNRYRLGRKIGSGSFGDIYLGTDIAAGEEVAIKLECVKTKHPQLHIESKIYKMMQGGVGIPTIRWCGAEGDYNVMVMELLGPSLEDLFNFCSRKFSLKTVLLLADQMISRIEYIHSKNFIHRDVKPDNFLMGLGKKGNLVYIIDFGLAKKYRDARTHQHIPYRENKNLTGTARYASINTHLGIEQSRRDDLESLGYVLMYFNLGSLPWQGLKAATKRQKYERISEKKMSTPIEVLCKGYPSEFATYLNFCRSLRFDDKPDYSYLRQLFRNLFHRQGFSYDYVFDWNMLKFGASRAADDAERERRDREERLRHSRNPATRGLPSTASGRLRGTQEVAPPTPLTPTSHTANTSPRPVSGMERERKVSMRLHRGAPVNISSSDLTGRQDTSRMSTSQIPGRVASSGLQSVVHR

[7] = biological target: Casein kinase I isoform delta (Homo sapiens) (UniProt P48730); test: Inhibition of CSNK1D (unknown origin) at 100 nM in the presence of ATP by Kinome scan method relative to control
[8] = biological target: Ephrin type-A receptor 1 (Homo sapiens) (UniProt P21709); test: Inhibition of EPHA1 (unknown origin) at 1000 nM in the presence of ATP by Kinome scan method relative to control
[9] = biological target: Ephrin type-B receptor 1 (Homo sapiens) (UniProt P54762); test: Inhibition of EPHB1 (unknown origin) at 1000 nM in the presence of ATP by Kinome scan method relative to control
[10] = biological target: Serine/threonine-protein kinase mTOR (Homo sapiens) (UniProt P42345); test: Inhibition of FRAP1 (unknown origin) at 1000 nM in the presence of ATP by Kinome scan method relative to control
[11] = biological target: Glycogen synthase kinase-3 beta (Homo sapiens) (UniProt P49841); test: Inhibition of GSK3B (unknown origin) at 1000 nM in the presence of ATP by Kinome scan method relative to control
[12] = biological target: Homeodomain-interacting protein kinase 1 (Homo sapiens) (UniProt Q86Z02); test: Inhibition of HIPK1 (unknown origin) at 1000 nM in the presence of ATP by Kinome scan method relative to control
Chain of Homeodomain-interacting protein kinase 1 (Homo sapiens) (Q86Z02 whole entry, looked up): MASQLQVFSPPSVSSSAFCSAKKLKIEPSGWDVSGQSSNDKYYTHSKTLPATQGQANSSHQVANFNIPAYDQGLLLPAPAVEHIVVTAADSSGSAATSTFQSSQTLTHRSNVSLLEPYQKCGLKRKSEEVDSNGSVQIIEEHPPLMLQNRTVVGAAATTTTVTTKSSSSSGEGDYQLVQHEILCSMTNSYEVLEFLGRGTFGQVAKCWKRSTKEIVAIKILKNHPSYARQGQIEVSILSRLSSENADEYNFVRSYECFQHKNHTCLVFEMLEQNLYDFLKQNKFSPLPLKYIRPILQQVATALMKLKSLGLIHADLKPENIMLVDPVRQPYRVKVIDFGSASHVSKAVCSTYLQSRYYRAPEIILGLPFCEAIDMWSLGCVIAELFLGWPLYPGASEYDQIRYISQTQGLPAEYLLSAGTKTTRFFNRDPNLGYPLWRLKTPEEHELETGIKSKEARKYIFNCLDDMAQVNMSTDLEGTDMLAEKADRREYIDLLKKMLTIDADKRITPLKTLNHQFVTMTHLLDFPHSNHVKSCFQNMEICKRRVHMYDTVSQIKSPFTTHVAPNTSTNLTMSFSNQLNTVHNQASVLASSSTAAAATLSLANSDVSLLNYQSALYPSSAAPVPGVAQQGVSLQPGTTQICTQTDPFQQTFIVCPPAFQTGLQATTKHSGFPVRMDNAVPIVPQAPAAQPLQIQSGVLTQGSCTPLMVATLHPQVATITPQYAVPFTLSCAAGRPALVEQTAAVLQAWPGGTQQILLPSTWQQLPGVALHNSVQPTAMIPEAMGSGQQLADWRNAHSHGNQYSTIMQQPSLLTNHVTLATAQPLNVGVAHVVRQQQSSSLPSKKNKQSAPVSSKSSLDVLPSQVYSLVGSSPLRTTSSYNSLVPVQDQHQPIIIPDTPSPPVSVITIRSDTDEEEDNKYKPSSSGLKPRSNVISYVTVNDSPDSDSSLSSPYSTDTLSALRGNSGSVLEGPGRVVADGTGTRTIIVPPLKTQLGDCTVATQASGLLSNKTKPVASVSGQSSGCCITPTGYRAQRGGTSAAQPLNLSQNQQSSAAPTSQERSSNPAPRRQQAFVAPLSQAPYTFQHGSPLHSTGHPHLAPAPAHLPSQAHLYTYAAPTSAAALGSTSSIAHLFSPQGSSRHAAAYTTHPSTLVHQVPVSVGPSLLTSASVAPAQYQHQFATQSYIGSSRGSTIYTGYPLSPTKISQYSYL

[13] = biological target: Tyrosine-protein kinase JAK2 (Homo sapiens) (UniProt O60674); test: Inhibition of JAK2 (unknown origin) at 100 nM in the presence of ATP by Kinome scan method relative to control
[14] = biological target: Mast/stem cell growth factor receptor Kit (Homo sapiens) (UniProt P10721); test: Inhibition of KIT (unknown origin) at 1000 nM in the presence of ATP by Kinome scan method relative to control
Chain of Mast/stem cell growth factor receptor Kit (Homo sapiens) (P10721 whole entry): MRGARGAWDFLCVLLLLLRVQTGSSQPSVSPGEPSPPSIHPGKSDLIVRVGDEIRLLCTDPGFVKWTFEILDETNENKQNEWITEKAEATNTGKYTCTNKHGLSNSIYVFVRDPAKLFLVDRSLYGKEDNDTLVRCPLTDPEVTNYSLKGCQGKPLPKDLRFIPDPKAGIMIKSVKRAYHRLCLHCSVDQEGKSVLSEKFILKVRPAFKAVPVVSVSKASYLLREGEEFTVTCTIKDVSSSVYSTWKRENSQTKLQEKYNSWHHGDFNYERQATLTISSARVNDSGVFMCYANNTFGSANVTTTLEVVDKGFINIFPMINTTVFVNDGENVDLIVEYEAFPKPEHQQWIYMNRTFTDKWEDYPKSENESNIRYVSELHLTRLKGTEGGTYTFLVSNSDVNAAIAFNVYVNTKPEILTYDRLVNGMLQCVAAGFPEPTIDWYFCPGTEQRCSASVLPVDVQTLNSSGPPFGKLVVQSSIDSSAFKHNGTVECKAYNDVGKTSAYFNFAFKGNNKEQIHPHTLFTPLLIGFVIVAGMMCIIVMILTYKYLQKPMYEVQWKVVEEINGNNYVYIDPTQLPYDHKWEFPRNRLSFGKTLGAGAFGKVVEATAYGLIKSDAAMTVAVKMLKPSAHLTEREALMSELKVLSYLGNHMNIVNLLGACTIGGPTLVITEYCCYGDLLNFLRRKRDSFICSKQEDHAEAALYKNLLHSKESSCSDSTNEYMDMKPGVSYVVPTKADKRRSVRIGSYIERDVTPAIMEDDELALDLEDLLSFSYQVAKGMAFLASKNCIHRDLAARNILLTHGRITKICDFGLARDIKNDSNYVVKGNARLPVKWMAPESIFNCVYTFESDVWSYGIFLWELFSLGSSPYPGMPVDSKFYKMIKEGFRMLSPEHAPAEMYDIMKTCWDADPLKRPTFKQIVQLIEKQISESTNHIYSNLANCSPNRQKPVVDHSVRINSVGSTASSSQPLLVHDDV

[15] = biological target: Dual specificity mitogen-activated protein kinase kinase 1 (Homo sapiens) (UniProt Q02750); test: Inhibition of MAP2K1 (unknown origin) at 1000 nM in the presence of ATP by Kinome scan method relative to control
Chain of Dual specificity mitogen-activated protein kinase kinase 1 (Homo sapiens) (Q02750 whole entry): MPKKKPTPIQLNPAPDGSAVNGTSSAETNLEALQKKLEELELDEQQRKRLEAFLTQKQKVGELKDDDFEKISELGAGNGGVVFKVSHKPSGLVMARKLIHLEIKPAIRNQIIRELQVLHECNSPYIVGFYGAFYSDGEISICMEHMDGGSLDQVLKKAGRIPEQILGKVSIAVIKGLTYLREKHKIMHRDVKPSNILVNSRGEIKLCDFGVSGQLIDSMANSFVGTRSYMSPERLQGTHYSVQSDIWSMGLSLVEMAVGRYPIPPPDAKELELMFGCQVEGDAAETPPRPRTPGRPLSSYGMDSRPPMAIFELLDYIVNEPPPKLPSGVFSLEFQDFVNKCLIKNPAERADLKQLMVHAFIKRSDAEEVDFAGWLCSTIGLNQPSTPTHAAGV

[16] = biological target: Dual specificity mitogen-activated protein kinase kinase 1 (Homo sapiens) (UniProt Q02750); test: Inhibition of MAP2K1 (unknown origin) at 100 nM in the presence of ATP by Kinome scan method relative to control
[17] = biological target: Serine/threonine-protein kinase Nek1 (Homo sapiens) (UniProt Q96PY6); test: Inhibition of NEK1 (unknown origin) at 100 nM in the presence of ATP by Kinome scan method relative to control
[18] = biological target: cAMP-dependent protein kinase catalytic subunit alpha (Homo sapiens) (UniProt P17612); test: Inhibition of PRKACA (unknown origin) at 1000 nM in the presence of ATP by Kinome scan method relative to control
[19] = biological target: cAMP-dependent protein kinase catalytic subunit alpha (Homo sapiens) (UniProt P17612); test: Inhibition of PRKACA (unknown origin) at 100 nM in the presence of ATP by Kinome scan method relative to control
[20] = biological target: Protein kinase C alpha type (Homo sapiens) (UniProt P17252); test: Inhibition of PRKCA (unknown origin) at 100 nM in the presence of ATP by Kinome scan method relative to control
[21] = biological target: Proto-oncogene tyrosine-protein kinase ROS (Homo sapiens) (UniProt P08922); test: Inhibition of ROS1 (unknown origin) at 1000 nM in the presence of ATP by Kinome scan method relative to control
[22] = biological target: Ribosomal protein S6 kinase beta-1 (Homo sapiens) (UniProt P23443); test: Inhibition of RPS6KB1 (unknown origin) at 1000 nM in the presence of ATP by Kinome scan method relative to control
[23] = biological target: Angiopoietin-1 receptor (Homo sapiens) (UniProt Q02763); test: Inhibition of TEK (unknown origin) at 1000 nM in the presence of ATP by Kinome scan method relative to control
[24] = biological target: Death-associated protein kinase 1 (Homo sapiens) (UniProt P53355); test: Inhibition of DAPK1 (unknown origin) at 1000 nM in the presence of ATP by Kinome scan method relative to control
[25] = biological target: Dual specificity protein kinase CLK2 (Homo sapiens, UniProt P49760); test: Inhibition of N-terminal FLAG-tagged CLK2 in human HCT-116 cells assessed as increase in CLK2 protein level at 0.5 to 0.1 uM incubated for 6 hrs by immunoblot analysis; assay type: cell-based; conditions: dose 0.5-0.1 µM
Chain of Dual specificity protein kinase CLK2 (P49760 whole entry, looked up): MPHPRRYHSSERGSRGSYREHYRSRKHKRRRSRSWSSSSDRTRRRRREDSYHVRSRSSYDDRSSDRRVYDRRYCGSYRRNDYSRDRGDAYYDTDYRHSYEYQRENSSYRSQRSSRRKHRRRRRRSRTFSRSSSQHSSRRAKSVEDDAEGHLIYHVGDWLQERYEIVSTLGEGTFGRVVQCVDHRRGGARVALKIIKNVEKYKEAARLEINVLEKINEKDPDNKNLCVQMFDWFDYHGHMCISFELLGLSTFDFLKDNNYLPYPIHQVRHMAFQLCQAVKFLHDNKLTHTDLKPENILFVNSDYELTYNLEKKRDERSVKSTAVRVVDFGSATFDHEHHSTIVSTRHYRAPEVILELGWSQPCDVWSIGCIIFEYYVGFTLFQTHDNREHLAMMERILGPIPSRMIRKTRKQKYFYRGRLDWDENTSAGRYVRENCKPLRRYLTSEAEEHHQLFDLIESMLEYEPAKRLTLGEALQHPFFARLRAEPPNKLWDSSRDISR

[26] = biological target: Dual specificity protein kinase CLK1 (Homo sapiens) (UniProt P49759); test: Inhibition of CLK (unknown origin) in human HCT-116 cells assessed as decrease in SRSF6 phosphorylation level at 0.5 to 1.0 uM incubated for 6 hrs by immunoblot analysis; assay type: cell-based; conditions: dose 0.5-1 µM
HCT-116 [27] = test: Induction of cell cycle arrest in human HCT-116 cells assessed as S phase at 0.5 uM incubated for 6 hrs by flow cytometry analysis (Rvb=39.3%); assay type: functional
HCT-116 [28] = test: Induction of cell cycle arrest in human HCT-116 cells assessed as G0/G1 phase at 10 uM incubated for 6 hrs by flow cytometry analysis (Rvb=35.0%); assay type: functional
HCT-116 [29] = test: Induction of cell cycle arrest in human HCT-116 cells assessed as sub G0/G1 phase at 0.1 uM incubated for 24 hrs by flow cytometry analysis (Rvb=2.5%); assay type: functional
[30] = biological target: 3-phosphoinositide-dependent protein kinase 1 (PDPK1) (Homo sapiens) (UniProt O15530); test: Inhibition of PDK1 Direct (unknown origin) at 1000 nM in the presence of ATP by Kinome scan method relative to control
Chain of 3-phosphoinositide-dependent protein kinase 1 (PDPK1) (Homo sapiens) (O15530 whole entry, looked up): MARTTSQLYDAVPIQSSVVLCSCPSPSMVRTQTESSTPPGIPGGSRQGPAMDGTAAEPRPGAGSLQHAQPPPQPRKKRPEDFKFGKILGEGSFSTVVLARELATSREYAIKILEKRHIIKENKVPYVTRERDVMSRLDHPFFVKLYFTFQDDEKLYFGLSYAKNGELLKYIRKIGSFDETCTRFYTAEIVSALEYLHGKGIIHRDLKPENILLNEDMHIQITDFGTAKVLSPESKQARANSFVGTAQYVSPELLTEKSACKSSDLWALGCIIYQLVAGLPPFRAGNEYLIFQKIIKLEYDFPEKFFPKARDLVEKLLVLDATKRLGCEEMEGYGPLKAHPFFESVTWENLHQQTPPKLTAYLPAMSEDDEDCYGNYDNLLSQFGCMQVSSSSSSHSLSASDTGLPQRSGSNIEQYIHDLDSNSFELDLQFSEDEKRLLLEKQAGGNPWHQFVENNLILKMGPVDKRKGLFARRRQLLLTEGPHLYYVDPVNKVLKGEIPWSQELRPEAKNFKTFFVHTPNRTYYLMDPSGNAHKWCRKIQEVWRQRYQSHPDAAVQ

With `CN1CCN(C(=O)C(C)(C)c2ccc(C(=O)Nc3cn4cc(-c5ccncc5)ccc4n3)cc2)CC1` [T3-CLK] the Activity (HCT-116 [1]) was 0.87%, the Activity (HCT-116 [2]) was 0.86% and the inhibition [3] was 2%. The inhibition [4] was 56%, the inhibition [5] was 17% and the inhibition [6] was 4%. The inhibition [7] was -3%, the inhibition [8] was -1% and the inhibition [9] was 4%. The inhibition [10] was -9%, the inhibition [11] was -3% and the inhibition [12] was 3%. For the same compound, the inhibition [13] was -7%, the inhibition [14] was 37% and the inhibition [15] was 11%. For the same compound, the inhibition [16] was 12%, the inhibition [17] was 4% and the inhibition [18] was 4%. It also gave an inhibition [19] of -2%, an inhibition [20] of 4% and an inhibition [21] of 0%. The inhibition [22] was 1%, the inhibition [23] was 0% and the inhibition [24] was -6%. For the same compound, the inhibition [25] was “Active”, the inhibition [26] was “Active” and the Activity (HCT-116 [27]) was 46.9%. It also gave an Activity (HCT-116 [28]) of 28.4%, an Activity (HCT-116 [29]) of 2.8% and an inhibition [30] of 2%.
